Test results taken from patent US20090209492A1, “Lipase Inhibitors” (TRUSTEES OF TUFTS COLLEGE, priority 2004, published 2009).

Target: T1, endothelial lipase (Homo sapiens, UniProt Q9Y5X9)
T1 sequence (Q9Y5X9 21-500): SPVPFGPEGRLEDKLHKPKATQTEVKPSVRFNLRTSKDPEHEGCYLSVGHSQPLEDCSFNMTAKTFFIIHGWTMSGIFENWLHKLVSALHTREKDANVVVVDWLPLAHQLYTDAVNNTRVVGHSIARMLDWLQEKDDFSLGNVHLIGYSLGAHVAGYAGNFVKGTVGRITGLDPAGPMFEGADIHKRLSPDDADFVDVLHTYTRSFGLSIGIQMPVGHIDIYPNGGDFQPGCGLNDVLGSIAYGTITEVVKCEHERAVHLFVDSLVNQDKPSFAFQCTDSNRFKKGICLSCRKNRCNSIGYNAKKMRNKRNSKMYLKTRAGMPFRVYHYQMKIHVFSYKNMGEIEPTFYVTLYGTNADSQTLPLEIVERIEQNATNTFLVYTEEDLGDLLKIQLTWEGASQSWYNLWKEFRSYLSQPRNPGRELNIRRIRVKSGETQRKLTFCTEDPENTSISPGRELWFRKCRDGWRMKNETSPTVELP
Experiment: Endothelial lipase inhibiting activity of boronic acids
Format: biochemical
Settings: for inhibition at 50 µM: 50 micromolar solution of each compound; for IC50: endothelial lipase
Protocol: The endothelial lipase inhibiting activity of various aliphatic boronic acids was tested.
The endothelial lipase inhibiting activity of various aromatic boronic acids was tested.

SMILES	inhibition at 50 µM (aliphatic boronic acids) [%]	inhibition at 50 µM (aromatic boronic acids) [%]	further results
CCCCCCCCCCCCCCB(O)O	89	–	IC50 (aliphatic boronic acids): 1 µM
CCCCCCCCCCCCCCCB(O)O	90	–	–
CCCCCCCCCCCCCCCCB(O)O	62	–	–
CCCCCC/C=C/B(O)O	77	–	–
CCCCCCC/C=C/B(O)O	82	–	–
OB(O)C1CCCCC1	–	1	–
OB(O)C1CCCC1	–	7	–

Second part, led by results:

inhibition at 50 µM (aliphatic boronic acids) [%]	inhibition at 50 µM (aromatic boronic acids) [%]	SMILES	further results
72	–	C=CCCCB(O)O	IC50 (aliphatic boronic acids): 26 µM
42	–	CCCCCB(O)O	–
53	–	CCCCCCB(O)O	–
63	–	CCCCC/C=C/B(O)O	–
9	–	CC(C)CB(O)O	–
–	80	CC(=O)c1ccc(B(O)O)cc1	IC50 (aromatic boronic acids): 26 µM
–	83	CCc1ccc(B(O)O)cc1	IC50 (aromatic boronic acids): 11 µM
–	88	Cc1ccc(B(O)O)cc1	IC50 (aromatic boronic acids): 17 µM
–	60	O=Cc1ccc(B(O)O)cc1	–
–	10	OB(O)Cc1ccccc1	–
